Data from patent US20230111310A1, “CARBOXYLIC ACID DERIVATIVE-SUBSTITUTED IMINO ARYL COMPOUND, PREPARATION METHOD THEREFOR, HERBICIDAL COMPOSITION AND USE THEREOF” (Qingdao Kingagroot Chemical Compound Co., Ltd., priority 2020, published 2023).

Columns and labels:
Assay in all cases: Weeding effect in post-emergence stage
Type in all cases: in vivo
Settings in all cases: Dose 15 g/ha; level of fresh weight growth control rate
[1] = test system: Echinochloa crusgalli
Summary of the method: (§1)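 Post-emergence spray tower; 2-3 leaf plants (2 wk after sowing, soil pots, greenhouse). Formulation: acetone, Tween 80, methyl oleate EC 1.5 liter/ha as synergist, water. Rates 500–7.5 g/ha. Growth control rate read at 3 wk; n=3, averaged.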

[2] = test system: Setaria viridis
Summary of the method: as §1

[3] = test system: Digitaria sanguinalis
Summary of the method: as §1

[4] = test system: Alopecurus japonicus
Summary of the method: as §1

[5] = test system: Eleusine indica
Summary of the method: as §1

[6] = test system: Abutilon theophrasti
Summary of the method: as §1

| SMILES | Weeding effect in post-emergence stage, Echinochloa crusgalli [1] | Weeding effect in post-emergence stage, Setaria viridis [2] | Weeding effect in post-emergence stage, Digitaria sanguinalis [3] | Weeding effect in post-emergence stage, Alopecurus japonicus [4] | Weeding effect in post-emergence stage, Eleusine indica [5] | Weeding effect in post-emergence stage, Abutilon theophrasti [6] |
| --- | --- | --- | --- | --- | --- | --- |
| C[C@@H](O/N=C/c1cc(-n2c(=O)cc(C(F)(F)F)n(C)c2=O)c(F)cc1Cl)C(=O)OCC#N [226(R)] | 5 (Level 5: growth control rate is above 85%) | 5 (Level 5: growth control rate is above 85%) | 5 (Level 5: growth control rate is above 85%) | 5 (Level 5: growth control rate is above 85%) | 5 (Level 5: growth control rate is above 85%) | 5 (Level 5: growth control rate is above 85%) |
| C[C@@H](O/N=C/c1cc(-n2c(=O)cc(C(F)(F)F)n(C)c2=O)c(F)cc1Cl)C(=O)OCCC#N [227(R)] | 5 (Level 5: growth control rate is above 85%) | 5 (Level 5: growth control rate is above 85%) | 5 (Level 5: growth control rate is above 85%) | 5 (Level 5: growth control rate is above 85%) | 5 (Level 5: growth control rate is above 85%) | 5 (Level 5: growth control rate is above 85%) |
| C[C@@H](O/N=C/c1cc(-n2c(=O)cc(C(F)(F)F)n(C)c2=O)c(F)cc1Cl)C(=O)OCCO [228(R)] | 5 (Level 5: growth control rate is above 85%) | 5 (Level 5: growth control rate is above 85%) | 5 (Level 5: growth control rate is above 85%) | 5 (Level 5: growth control rate is above 85%) | 5 (Level 5: growth control rate is above 85%) | 5 (Level 5: growth control rate is above 85%) |
| COCCOC(=O)[C@@H](C)O/N=C/c1cc(-n2c(=O)cc(C(F)(F)F)n(C)c2=O)c(F)cc1Cl [230(R)] | 5 (Level 5: growth control rate is above 85%) | 5 (Level 5: growth control rate is above 85%) | 5 (Level 5: growth control rate is above 85%) | 5 (Level 5: growth control rate is above 85%) | 5 (Level 5: growth control rate is above 85%) | 5 (Level 5: growth control rate is above 85%) |
| CCOCCOC(=O)[C@@H](C)O/N=C/c1cc(-n2c(=O)cc(C(F)(F)F)n(C)c2=O)c(F)cc1Cl [231(R)] | 5 (Level 5: growth control rate is above 85%) | 5 (Level 5: growth control rate is above 85%) | 5 (Level 5: growth control rate is above 85%) | 5 (Level 5: growth control rate is above 85%) | 5 (Level 5: growth control rate is above 85%) | 5 (Level 5: growth control rate is above 85%) |
